Data published in US20220009967A1, “Isolation and Semi-Synthesis of Rufomycin Analogs” (THE BOARD OF TRUSTEES OF THE UNIVERSITY OF ILLINOIS, priority 2020, published 2022).

Legend:
[1] = target: T1, Mycobacterial ClpC1-NTD (Mycobacterium tuberculosis, UniProt P9WPC9); test: SPR binding affinity to ClpC1-NTD; settings: SPR, ClpC1 N-terminal domain; Table 3, unit inferred; read-out: KD NTD
T1 construct: caseinolytic protein C1 (ClpC1) N-terminal domain (NTD)
Procedure: (§1) Analysis of binding affinity to Mycobacterial ClpC1-NTD and FL by SPR. SPR binding assay was performed using a previously reported method (Choules et al., Antimicrob. Agents Chemother. 2019, 63, e02204-02218; Wolf et al., ACS Infect. Dis. 2019, 5, 829-840). Kinetic rate constants (ka and kd) were determined by fitting the double-reference data globally to the 1:1 Langmuir model embedded in the Biacore T200 evaluation software (v3.0). KD values were then calculated from the two rate constants (KD=kd/ka). Smaller KD values represent tighter binding affinities.

[2] = target: T2, Mycobacterial ClpC1 FL (Mycobacterium tuberculosis, UniProt P9WPC9); test: SPR binding affinity to ClpC1 full-length protein (FL); settings: SPR, ClpC1 full-length protein; Table 3, unit inferred; read-out: KD FL
T2 construct: N-terminal domain (NTD) and the full-length protein (FL) by surface plasmon resonance (SPR)
Procedure: as §1

[3] = tested on: M. tuberculosis; test: MIC against M. tuberculosis, microplate Alamar Blue assay (MABA); assay type: cell-based, Mycobacterium tuberculosis; set-up: MIC90: unit not given beside the values; settings: for MIC90: MABA, Table 3, unit not given; for anti-M.tb potency relative to rifampin and isoniazid (in words): MIC data of Table 3
Procedure: MICs against M. tuberculosis. The MIC was defined as the minimum concentration of the compound required to achieve a reduction in fluorescence by 90% relative to the untreated bacterial controls. The anti-TB activity was determined by the microplate Alamar Blue assay (MABA) as previously described (Choules et al., Antimicrob. Agents Chemother. 2019, 63, e02204-02218).

[4] = Interconversion (epimerization) of rufomycin diastereomers, HPLC analysis; assay type: physicochemical; settings: for interconversion / stability of diastereomers (in words): HPLC analysis, hemi-aminal epimers
From the text: The rufomycins 32-35 were identified as four diastereomers, arising from different orientations of the hydroxyl and methyl groups in the hydroxy-methyl piperidinone moiety. Rufomycin 32 was assigned the (AA5, 4S,5R) absolute configuration based on the ROESY correlations, and further confirmed by the cocrystal structures of rufomycin 32 and ClpC1-NTD. Thus, rufomycin 32 is that congener previously identified as ilamycin, Compound 4, and ilamycin C1 (PCT/US2000/015044). […] The assigned 4S,5S (AA5) absolute configuration for rufomycin 33 was validated by the ROESY correlations. Rufomycin 34 with the absolute configuration 4R,5R (AA5) was established by the ROESY cross-peaks. […] After being purified by semi-prep HPLC, rufomycin 35 was concentrated under a stream of forced air and freeze drying to reduce interconversion.

[5] = target: caseinolytic protein C1 (ClpC1) full-length protein (FL) (Mycobacterial (Mycobacterium tuberculosis by context)) (UniProt P9WPC9); test: SPR (Biacore T200), 1:1 Langmuir fit, KD=kd/ka
[6] = target: caseinolytic protein C1 (ClpC1) N-terminal domain (NTD) (Mycobacterial (Mycobacterium tuberculosis by context)) (UniProt P9WPC9); test: SPR (Biacore T200), 1:1 Langmuir fit, KD=kd/ka
Chain of caseinolytic protein C1 (ClpC1) N-terminal domain (NTD) (Mycobacterial (Mycobacterium tuberculosis by context)) (P9WPC9 1-145 limits assumed): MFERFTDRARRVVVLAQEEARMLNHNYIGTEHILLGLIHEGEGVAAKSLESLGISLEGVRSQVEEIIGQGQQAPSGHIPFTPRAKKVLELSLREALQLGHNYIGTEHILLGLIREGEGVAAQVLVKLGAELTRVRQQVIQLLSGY

T1 sequence (P9WPC9 2-144): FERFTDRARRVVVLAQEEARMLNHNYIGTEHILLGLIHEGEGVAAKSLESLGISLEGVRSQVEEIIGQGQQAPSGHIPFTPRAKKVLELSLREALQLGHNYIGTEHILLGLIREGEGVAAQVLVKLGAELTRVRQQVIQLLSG
T2 sequence (P9WPC9 whole entry, the tested form may be a part): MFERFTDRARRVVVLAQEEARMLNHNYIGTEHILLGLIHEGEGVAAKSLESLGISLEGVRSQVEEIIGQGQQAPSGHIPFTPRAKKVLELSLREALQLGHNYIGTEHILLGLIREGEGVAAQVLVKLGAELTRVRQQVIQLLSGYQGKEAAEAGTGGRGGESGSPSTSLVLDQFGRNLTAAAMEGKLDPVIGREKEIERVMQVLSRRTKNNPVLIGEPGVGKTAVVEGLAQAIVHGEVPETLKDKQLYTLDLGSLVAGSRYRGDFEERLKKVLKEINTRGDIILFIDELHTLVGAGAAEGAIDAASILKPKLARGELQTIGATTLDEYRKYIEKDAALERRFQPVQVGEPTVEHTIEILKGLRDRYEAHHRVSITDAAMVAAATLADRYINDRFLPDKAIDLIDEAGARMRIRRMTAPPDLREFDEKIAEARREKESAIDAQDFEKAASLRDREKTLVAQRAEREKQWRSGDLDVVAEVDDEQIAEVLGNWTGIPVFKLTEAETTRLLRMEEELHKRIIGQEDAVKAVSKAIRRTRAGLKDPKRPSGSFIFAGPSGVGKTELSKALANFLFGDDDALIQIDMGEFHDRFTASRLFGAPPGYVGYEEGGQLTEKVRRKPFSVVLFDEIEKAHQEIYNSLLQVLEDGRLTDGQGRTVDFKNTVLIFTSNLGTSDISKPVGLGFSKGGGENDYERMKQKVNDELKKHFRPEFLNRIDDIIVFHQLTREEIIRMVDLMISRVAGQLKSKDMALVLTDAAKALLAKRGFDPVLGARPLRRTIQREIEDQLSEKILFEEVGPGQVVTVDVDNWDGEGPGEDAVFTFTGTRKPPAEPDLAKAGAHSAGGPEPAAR
Chain of caseinolytic protein C1 (ClpC1) full-length protein (FL) (Mycobacterial (Mycobacterium tuberculosis by context)) (P9WPC9 whole entry, the tested form may be a part): as above

Compound | Kd [1] [nM] | Kd [2] [nM] | MIC90 [3] | anti-M.tb potency relative to rifampin and isoniazid (in words) [3] | interconversion / stability of diastereomers (in words) [4] | conversion to rufomycin 35 ([4]; under aqueous conditions, slowly) [%] | epimerization to rufomycin 34 ([4]; during concentration, quickly) [%] | Kd [5] [nM] | Kd [6] [nM]
C/C=C/C[C@@H]1NC(=O)[C@H](CC(C)C)N2C(=O)[C@H](C[C@H](C)[C@H]2O)N(C)C(=O)[C@H](C)NC(=O)[C@H](Cc2ccc(O)c([N+](=O)[O-])c2)NC(=O)[C@H](CC(C)C)N(C)C(=O)[C@H](Cc2cn(C(C)(C)[C@H]3CO3)c3ccccc23)NC1=O [rufomycin 32] | 32 | 31 | 21 | higher potency than drugs rifampin and isoniazid | interconvertible |  |  |  | 
C/C=C/C[C@@H]1NC(=O)[C@H](CC(C)C)N2C(=O)[C@H](C[C@H](C)[C@@H]2O)N(C)C(=O)[C@H](C)NC(=O)[C@H](Cc2ccc(O)c([N+](=O)[O-])c2)NC(=O)[C@H](CC(C)C)N(C)C(=O)[C@H](Cc2cn(C(C)(C)[C@H]3CO3)c3ccccc23)NC1=O [rufomycin 33] | 29 | 27 | 12 | higher potency than drugs rifampin and isoniazid | interconvertible |  |  |  | 
C/C=C/C[C@@H]1NC(=O)[C@H](CC(C)C)N2C(=O)[C@H](C[C@@H](C)[C@H]2O)N(C)C(=O)[C@H](C)NC(=O)[C@H](Cc2ccc(O)c([N+](=O)[O-])c2)NC(=O)[C@H](CC(C)C)N(C)C(=O)[C@H](Cc2cn(C(C)(C)[C@H]3CO3)c3ccccc23)NC1=O [rufomycin 34] | 183 | 178 | 46 |  |  | ~5 |  |  | 
C/C=C/C[C@@H]1NC(=O)[C@H](CC(C)C)N2C(=O)[C@H](C[C@@H](C)[C@@H]2O)N(C)C(=O)[C@H](C)NC(=O)[C@H](Cc2ccc(O)c([N+](=O)[O-])c2)NC(=O)[C@H](CC(C)C)N(C)C(=O)[C@H](Cc2cn(C(C)(C)[C@H]3CO3)c3ccccc23)NC1=O [rufomycin 35] | 186 | 209 | 47 |  | the most unstable diastereomer |  | ~50 |  | 
rufomycins 1 and 2 mixture (peptide) |  |  |  |  |  |  |  | 70 | 70
